One compound from US10532065B2, “Bisphosphonic acid derivative and application for same” (NAGASAKI UNIVERSITY, priority 2014, dated 2020) can be followed below.

Molecules are shown by their SMILES. Entries after “also recorded” stand apart in the source; their conditions may differ.

Assay [1] has as its system various tumor cell lines / γδ T cells. Kind of assay: TNF-α production induction ability in various tumor cell lines (FIG. 7, 8). Type of assay: cell-based. The note with it: various tumor cell lines pretreated, γδ T cells (FIG. 7, 8). As to the method: From the results of the above-mentioned Experimental Example, of the bisphosphonic acid POM ester derivatives, since the activity of compound 7 was high, the TNF-α production induction ability of this compound was studied using tumor cells other than EJ-1. In this case, to study effectiveness of POM esterification, using compound 14, which is the corresponding bisphosphonic acid, as a control to be the comparison target. […] Thereto was added a solution (500 μl) of compound 7 obtained by serially diluting 10 mM stock solution 10-fold from 20 μM, or a solution (500 μl) of compound 14 obtained by serially diluting 10 mM stock solution 10-fold from 200 μM, and the cells were suspended well. These conical tubes were stood at 37° C. for 4 hr, and the cells were washed 3 times with 5 ml of culture medium. To these cells was added 500 μl of medium, and the cells were suspended well. […] The content of TNF-α was calculated from the analytical curve of TNF-α. […]
Therefore, TNF-α production induction ability of compound 7 was studied in more number of tumor cell lines. […] The content of TNF-α was calculated from the analytical curve of TNF-α.
To quantitatively study the above-mentioned TNF-α production induction ability, various tumor cell lines were treated with compound 7, reacted with γδ T cells, the produced TNF-α amount was measured, and TNF-α50 value thereof was calculated. […]

Assay [2] has as its system farnesyl diphosphate synthase (geranylgeranylation of Rap1A). Kind of assay: Rap1A geranylgeranylation inhibition in tumor cells (Western blotting). In kind it is cell-based. The note with it: non-geranylgeranylated Rap1A, 16 hr, various tumor cell lines (FIG. 9). The source says:
To verify this mechanism, whether the farnesyl diphosphate synthase is inhibited in the cell needs to be confirmed. If farnesyl diphosphate synthase is inhibited, intracellular concentration of geranylgeranyl diphosphate decreases, and geranylgeranylation of Rap1A small G protein is inhibited. The inhibitory effect thereof is clarified by quantifying the inhibition of geranylgeranylation of Rap1A. […] As the tumor cells, MOLT-3, PEER, C1R, J.RT3-T3.5, Raji, RAMOS-RA1, MOLT-4, HL60, U937, THP-1, SCC-3, P31/FUJ, K562, NOMO-1, YMB-1-E, MRK-nu-1, HMC-1-8, MCF-7, MDA-MB-231, T-47D, SK-BR-3, 786-0, VMRC-RCZ, UOK121, Caki-1, A-704, BxPC-3, KP4-1, KP4-2, KP4-3, MiaPaCa-2, TGBC24TKB, ACS, MG-63, LK-2, EJ-1 were used. […] Thereto was added 10 mM stock solution of compound 7 to a final concentration of 10 μM, 1 μM, 100 nM, 10 nM, 1 nM, 100 pM, 10 pM, 1 pM. These flasks were cultured at 37° C. under 5% CO2 atmosphere for 16 hr. Non-adherent cells were left unattended, and adherent cells were recovered using EDTA/trypsin solution. […] The supernatant was removed, and suspended in cell lysis solution (100 μl) composed of 1% NP-40, 0.1% SDS, 0.5% sodium deoxycholate. […]
To quantitatively analyze the inhibitory efficiency thereof, the concentration of a compound that inhibits geranylgeranylation of Rap1A by half was calculated as EC50 value and studied by comparison. […]
In general terms: Immunoblotting shows a protein as a band on a membrane.

The test system of assay [3] is γδ T cells in peripheral blood mononuclear cells of a healthy adult. The following applies: healthy adult PBMC, 1 μM, IL-2, 14 days of culture.
Protocol: Mononuclear cells were obtained by the specific gravity centrifugation method from the peripheral blood of a healthy adult. The obtained mononuclear cells were suspended in Yssel medium at 1.8×10^6 cells/ml, and seeded by 1.5 ml in each well of a 24-well plate. Compound 7 was added to each well at a concentration of 1 μM, and cultured at 37° C. under 5% CO2 atmosphere. After one day of culture, IL-2 was added at a concentration of 100 IU/ml, and the cells were cultured in the presence of 100 IU/ml IL-2 thereafter up to day 6, and cultured in the presence of 30 IU/ml IL-2 from day 7. After 14 days of culture, the cells were recovered, and cell surface molecule was analyzed by flow cytometry using labeled anti-CD3 antibody and labeled anti-Vδ2 antibody. As a control, an antibody having the same isotype as anti-CD3 antibody and anti-Vδ2 antibody but irrelevant thereto was used. The ratio (%) of γδ T cells having the Vδ2 region in CD3 cells was determined.
Assay [4] concerns γδ T cells in peripheral blood mononuclear cells of breast cancer patients. The note with it: breast cancer patient PBMC, IL-2, 17 days of culture.
Protocol: The obtained mononuclear cells were suspended in Yssel medium at 1.8×10^6 cells/ml, and seeded by 1.5 ml in each well of a 24-well plate. Compound 7 was added to each well at a concentration of 1 μM, and cultured at 37° C. under 5% CO2 atmosphere. After one day of culture, IL-2 was added at a concentration of 100 IU/ml, and the cells were cultured in the presence of 100 IU/ml IL-2 thereafter up to day 6, and cultured in the presence of 30 IU/ml IL-2 from day 7. After 14 days of culture, the cells were recovered, and cell surface molecule was analyzed by flow cytometry using labeled anti-CD3 antibody and labeled anti-Vδ2 antibody. As a control, an antibody having the same isotype as anti-CD3 antibody and anti-Vδ2 antibody but irrelevant thereto was used. The ratio (%) of γδ T cells having the Vδ2 region in CD3 cells was determined.
In the same manner as in Experimental Example 21 except that mononuclear cells obtained from the peripheral blood of breast cancer patients were used, compound 7 was added, and the cells were cultured at 37° C. under 5% CO2 atmosphere. […] After 17 days of culture, the cells were recovered, and cell surface molecule was analyzed by flow cytometry in the same manner as in Experimental Example 21. Also, the ratio (%) of γδ T cells having the Vδ2 region in CD3 cells was determined.

Turning to `CC(C)(C)C(=O)OCOP(=O)(OCOC(=O)C(C)(C)C)C(CNc1nccs1)P(=O)(OCOC(=O)C(C)(C)C)OCOC(=O)C(C)(C)C` [Compound 7, tetrakispivaloyloxymethyl 2-(thiazol-2-ylamino) ethylidene-1,1-bisphosphonate], the “TNF-α production induction ability (in words)” value in assay [1] was “TNF-α production induction ability becomes high by POM esterification in any tumor cells; also recorded: efficient induction of TNF-α production from γδ T cells in any cell line”. Further, the “farnesyl diphosphate synthase inhibitory action in cells (in words)” value in assay [2] was “inhibits efficiently, in any tumor cells, farnesyl diphosphate synthase; also recorded: high farnesyl diphosphate synthase inhibitory action in lymphatic tumor cells and myeloidic tumor cells”. In addition, in assay [3], the “ratio (%) of γδ T cells having the Vδ2 region in CD3 cells” value worked out at 99.8%. Moreover, in assay [4], the “ratio (%) of γδ T cells having the Vδ2 region in CD3 cells (purity)” value is given as “not less than 96%”.
